Key:
Assay in all cases: relative viability (nuclei count vs DMSO), 5 days (fraction); higher = more cells survive
ChaGo-K-1 = system: ChaGo-K-1
In short: (§1)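 Nuclei were stained with Hoechst during a one-step fixation (final 0.05% Triton X-100, 1% formaldehyde, 1 ug/ml Hoechst) carried out 5 days after dosing, then counted on 4× images. The cells, lung cancer lines in 1536-well plates, had been dosed by pin tool the day after seeding with one drug alone or a fixed anchor-drug dose plus five library-drug doses (not always all listed) in √10 steps. Relative viability is the nuclei count in treated wells divided by that in vehicle wells, and each value is the median of duplicate plates.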

EKVX = system: EKVX
In short: as §1

EPLC-272H = system: EPLC-272H
In short: as §1

H3255 = system: H3255
In short: as §1

HCC-827 = system: HCC-827
In short: as §1

HOP-62 = system: HOP-62
In short: as §1

LCLC-97TM1 = system: LCLC-97TM1
In short: as §1

LK-2 = system: LK-2
In short: as §1

LU99A = system: LU99A
In short: as §1

LXF-289 = system: LXF-289
In short: as §1

NCI-H1355 = system: NCI-H1355
In short: as §1

NCI-H1650 = system: NCI-H1650
In short: as §1

NCI-H1993 = system: NCI-H1993
In short: as §1

NCI-H2170 = system: NCI-H2170
In short: as §1

NCI-H2228 = system: NCI-H2228
In short: as §1

NCI-H2405 = system: NCI-H2405
In short: as §1

NCI-H3122 = system: NCI-H3122
In short: as §1

NCI-H441 = system: NCI-H441
In short: as §1

NCI-H522 = system: NCI-H522
In short: as §1

PC-3 [JPC-3] = system: PC-3 [JPC-3]
In short: as §1

SK-LU-1 = system: SK-LU-1
In short: as §1

SW 1573 = system: SW 1573
In short: as §1

UMC-11 = system: UMC-11
In short: as §1

Cc1cn(-c2cc(NC(=O)c3ccc(C)c(Nc4nccc(-c5cccnc5)n4)c3)cc(C(F)(F)F)c2)cn1 [Nilotinib] + Cc1cc(Nc2cc(N3CCN(C)CC3)nc(Sc3ccc(NC(=O)C4CC4)cc3)n2)n[nH]1 [Tozasertib] (partner 0.1 µM) showed a relative viability (ChaGo-K-1; first compound 0.001 µM) of 0.205, a relative viability (ChaGo-K-1; first compound 0.003162 µM) of 0.229 and a relative viability (ChaGo-K-1; first compound 0.01 µM) of 0.202. It also gave a relative viability (ChaGo-K-1; first compound 0.03162 µM) of 0.162, a relative viability (ChaGo-K-1; first compound 0.1 µM) of 0.138 and a relative viability (EKVX; first compound 0.001 µM) of 0.368. The relative viability (EKVX; first compound 0.003162 µM) was 0.341, the relative viability (EKVX; first compound 0.01 µM) was 0.35 and the relative viability (EKVX; first compound 0.03162 µM) was 0.252. The relative viability (EKVX; first compound 0.1 µM) was 0.261, the relative viability (EPLC-272H; first compound 0.001 µM) was 0.212 and the relative viability (EPLC-272H; first compound 0.003162 µM) was 0.18. For the same compound, the relative viability (EPLC-272H; first compound 0.01 µM) was 0.251, the relative viability (EPLC-272H; first compound 0.03162 µM) was 0.182 and the relative viability (EPLC-272H; first compound 0.1 µM) was 0.105. For the same compound, the relative viability (H3255; first compound 0.001 µM) was 0.532, the relative viability (H3255; first compound 0.003162 µM) was 0.516 and the relative viability (H3255; first compound 0.03162 µM) was 0.48. The relative viability (H3255; first compound 0.1 µM) was 0.717, the relative viability (HCC-827; first compound 0.003162 µM) was 0.521 and the relative viability (HCC-827; first compound 0.01 µM) was 0.529. For the same compound, the relative viability (HCC-827; first compound 0.03162 µM) was 0.39, the relative viability (HCC-827; first compound 0.1 µM) was 0.379 and the relative viability (HOP-62; first compound 0.001 µM) was 0.288. The relative viability (HOP-62; first compound 0.01 µM) was 0.289, the relative viability (LCLC-97TM1; first compound 0.001 µM) was 0.236 and the relative viability (LCLC-97TM1; first compound 0.003162 µM) was 0.254. The relative viability (LCLC-97TM1; first compound 0.01 µM) was 0.161, the relative viability (LCLC-97TM1; first compound 0.03162 µM) was 0.182 and the relative viability (LCLC-97TM1; first compound 0.1 µM) was 0.217. It also gave a relative viability (LK-2; first compound 0.001 µM) of 0.181, a relative viability (LK-2; first compound 0.003162 µM) of 0.163 and a relative viability (LK-2; first compound 0.01 µM) of 0.155. It also gave a relative viability (LK-2; first compound 0.03162 µM) of 0.175, a relative viability (LU99A; first compound 0.001 µM) of 0.232 and a relative viability (LU99A; first compound 0.003162 µM) of 0.268. The relative viability (LU99A; first compound 0.01 µM) was 0.211, the relative viability (LU99A; first compound 0.03162 µM) was 0.256 and the relative viability (LU99A; first compound 0.1 µM) was 0.226. For the same compound, the relative viability (LXF-289; first compound 0.001 µM) was 0.254, the relative viability (LXF-289; first compound 0.003162 µM) was 0.189 and the relative viability (LXF-289; first compound 0.01 µM) was 0.222. The relative viability (LXF-289; first compound 0.03162 µM) was 0.127, the relative viability (LXF-289; first compound 0.1 µM) was 0.153 and the relative viability (NCI-H1355; first compound 0.001 µM) was 0.512. It also gave a relative viability (NCI-H1355; first compound 0.003162 µM) of 0.454, a relative viability (NCI-H1355; first compound 0.01 µM) of 0.442 and a relative viability (NCI-H1355; first compound 0.03162 µM) of 0.343. For the same compound, the relative viability (NCI-H1355; first compound 0.1 µM) was 0.316, the relative viability (NCI-H1650; first compound 0.001 µM) was 0.329 and the relative viability (NCI-H1650; first compound 0.003162 µM) was 0.355. For the same compound, the relative viability (NCI-H1650; first compound 0.01 µM) was 0.324, the relative viability (NCI-H1650; first compound 0.03162 µM) was 0.324 and the relative viability (NCI-H1650; first compound 0.1 µM) was 0.256. For the same compound, the relative viability (NCI-H1993; first compound 0.001 µM) was 0.611, the relative viability (NCI-H1993; first compound 0.003162 µM) was 0.668 and the relative viability (NCI-H1993; first compound 0.01 µM) was 0.622. For the same compound, the relative viability (NCI-H1993; first compound 0.03162 µM) was 0.586, the relative viability (NCI-H1993; first compound 0.1 µM) was 0.631 and the relative viability (NCI-H2170; first compound 0.001 µM) was 0.734. For the same compound, the relative viability (NCI-H2170; first compound 0.003162 µM) was 0.77, the relative viability (NCI-H2170; first compound 0.01 µM) was 0.795 and the relative viability (NCI-H2170; first compound 0.03162 µM) was 0.599. The relative viability (NCI-H2170; first compound 0.1 µM) was 0.55, the relative viability (NCI-H2228; first compound 0.003162 µM) was 0.223 and the relative viability (NCI-H2228; first compound 0.01 µM) was 0.212. For the same compound, the relative viability (NCI-H2228; first compound 0.03162 µM) was 0.16, the relative viability (NCI-H2228; first compound 0.1 µM) was 0.141 and the relative viability (NCI-H2405; first compound 0.001 µM) was 0.767. It also gave a relative viability (NCI-H2405; first compound 0.003162 µM) of 0.765, a relative viability (NCI-H2405; first compound 0.01 µM) of 0.712 and a relative viability (NCI-H2405; first compound 0.03162 µM) of 0.654. For the same compound, the relative viability (NCI-H2405; first compound 0.1 µM) was 0.723, the relative viability (NCI-H3122; first compound 0.001 µM) was 0.364 and the relative viability (NCI-H3122; first compound 0.003162 µM) was 0.519. It also gave a relative viability (NCI-H3122; first compound 0.01 µM) of 0.436, a relative viability (NCI-H3122; first compound 0.03162 µM) of 0.374 and a relative viability (NCI-H3122; first compound 0.1 µM) of 0.18. For the same compound, the relative viability (NCI-H441; first compound 0.001 µM) was 0.448, the relative viability (NCI-H441; first compound 0.003162 µM) was 0.482 and the relative viability (NCI-H441; first compound 0.01 µM) was 0.44. It also gave a relative viability (NCI-H441; first compound 0.03162 µM) of 0.429, a relative viability (NCI-H441; first compound 0.1 µM) of 0.37 and a relative viability (NCI-H522; first compound 0.001 µM) of 0.484. For the same compound, the relative viability (NCI-H522; first compound 0.003162 µM) was 0.605, the relative viability (NCI-H522; first compound 0.01 µM) was 0.521 and the relative viability (NCI-H522; first compound 0.03162 µM) was 0.558. The relative viability (NCI-H522; first compound 0.1 µM) was 0.619, the relative viability (PC-3 [JPC-3]; first compound 0.001 µM) was 0.736 and the relative viability (PC-3 [JPC-3]; first compound 0.003162 µM) was 0.932. For the same compound, the relative viability (PC-3 [JPC-3]; first compound 0.01 µM) was 0.91, the relative viability (PC-3 [JPC-3]; first compound 0.03162 µM) was 0.621 and the relative viability (PC-3 [JPC-3]; first compound 0.1 µM) was 0.426. It also gave a relative viability (SK-LU-1; first compound 0.001 µM) of 0.304, a relative viability (SK-LU-1; first compound 0.003162 µM) of 0.292 and a relative viability (SK-LU-1; first compound 0.01 µM) of 0.287. For the same compound, the relative viability (SK-LU-1; first compound 0.03162 µM) was 0.293, the relative viability (SK-LU-1; first compound 0.1 µM) was 0.286 and the relative viability (SW 1573; first compound 0.001 µM) was 0.194. For the same compound, the relative viability (SW 1573; first compound 0.003162 µM) was 0.165, the relative viability (SW 1573; first compound 0.01 µM) was 0.211 and the relative viability (SW 1573; first compound 0.03162 µM) was 0.173. It also gave a relative viability (SW 1573; first compound 0.1 µM) of 0.15, a relative viability (UMC-11; first compound 0.001 µM) of 0.191 and a relative viability (UMC-11; first compound 0.003162 µM) of 0.19. For the same compound, the relative viability (UMC-11; first compound 0.01 µM) was 0.179, the relative viability (UMC-11; first compound 0.03162 µM) was 0.166 and the relative viability (UMC-11; first compound 0.1 µM) was 0.134.
